Experimental findings from patent US20130345254A1, “CYCLOHEXANE SUBSTITUTED AMINO CYCLOPENTANE DERIVATIVES AS USEFUL CCR2 ANTAGONISTS” (priority 2011, published 2013) are described below.

In this test the target is T1, human CCR2 (Homo sapiens, UniProt P41597).
T1 construct: expressed in transfected cells; host or cells: Ba/F3 cells (membrane preparation)
Put plainly: CCR2 membrane binding assay (SPA, 125I-rhMCP-1 competition). The settings on record: membranes from Ba/F3 cells transfected with human CCR2; 0.03 nM 125I-rhMCP-1; 4 h room temperature. The procedure: The radio-ligand binding assay was done using scintillation proximity assay (SPA) technology. Briefly, membranes (1 μg per assay point) from Ba/F3 cells transfected with human CCR2, and wheat germ agglutinin-coated SPA beads (80 μg per point; Amersham, Arlington Heights, Ill.), were pre-incubated for 30 min at room temperature in CCR2 buffer (50 mM HEPES (pH=7.4), 10 mM MgCl2, 10 mM NaCl, 1 mM CaCL2, 0.1% BSA, 10 μg/ml Saponin). At this point pre-bound SPA bead, membrane complex was incubated at room temperature for 4 h with varying concentrations of punitive CCR2 antagonists (in 1% DMSO, final) and 0.03 nM ^125I-rhMCP-1 in CCR2 Buffer (S.A. 2200 Ci/mmol, PerkinElmer Life and Analytical Science, Boston, Mass.; NEX332). Binding competition was measured using a 1450 Microbeta Trilux counter (Wallac, Gaithersburg, Md.). Binding constants (IC50 and slope) were calculated using GraphPad Prism software (GraphPad Software, Inc., La Jolla Calif.).

T1 sequence (P41597 whole entry): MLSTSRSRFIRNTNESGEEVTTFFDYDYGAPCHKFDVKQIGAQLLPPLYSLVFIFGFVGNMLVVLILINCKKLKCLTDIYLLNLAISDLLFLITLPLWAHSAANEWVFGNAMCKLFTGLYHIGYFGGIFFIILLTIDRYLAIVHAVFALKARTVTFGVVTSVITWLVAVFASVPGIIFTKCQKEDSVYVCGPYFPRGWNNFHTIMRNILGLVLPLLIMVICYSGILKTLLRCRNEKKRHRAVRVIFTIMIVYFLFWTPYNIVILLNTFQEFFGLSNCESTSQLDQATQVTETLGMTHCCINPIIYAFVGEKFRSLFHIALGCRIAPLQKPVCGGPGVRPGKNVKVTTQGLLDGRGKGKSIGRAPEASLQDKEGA

For orientation: IC50 means the concentration needed to halve the response being measured. Higher therefore signals weaker potency. `CC=C1CCC(N[C@@H]2CC[C@H](C(=O)NCc3cc(C(F)(F)F)cc(C(F)(F)F)c3)C2)CC1` (some centres unmarked) [Compound 1] displayed a half-inhibitory concentration (IC50) of 2100 nM. `CC=C1CCC(N[C@@H]2CC[C@@](C(=O)N3CCc4ncc(C(F)(F)F)cc4C3)(C(C)C)C2)CC1` (some centres unmarked) [Compound 2] came in with an IC50 of 9 nM.
